System: BTECs
Test: TCA cycle flux in BTECs
Format: cell-based, human
Conditions: FLVCR1a-silenced vs scramble shRNA BTECs
Source text: Results were expressed as nmol NAD*/min/mg mitochondrial protein for complex I, nmol reduced cytochrome c/min/mg mitochondrial protein for complexes II-III, nmol oxidized cytochrome c/min/mg mitochondrial protein for complex IV. Data represent mean±SEM, n=3. For statistical analyses, an unpaired Student's t-test was used; *=p<0.05, **=p<0.01, *=p<0.001. […] Results are expressed as nmol/mg mitochondrial proteins. Data represent mean±SEM, n=3. For statistical analyses, an unpaired Student's t-test was used; *=p<0.05. […] Results are expressed as pmol CO2/h/mg protein. Data represent mean±SEM, n=3. For statistical analyses, an unpaired Student's t-test was used; **=p<0.01. […] Results were expressed as nmol NAD*/min/mg mitochondrial protein for complex I, nmol reduced cytochrome c/min/mg mitochondrial protein for complexes II-III, nmol oxidized cytochrome c/min/mg mitochondrial protein for complex IV. […] Results are expressed as nmol/mg mitochondrial proteins. […] Results are expressed as pmol CO2/h/mg protein. […] (H) TCA cycle enzymes activities are reported in boxes and expressed as mU/mg mitochondrial proteins. […] Results were expressed as nmol NAD^+/min/mg mitochondrial protein for complex I, nmol reduced cytochrome c/min/mg mitochondrial protein for complexes II-III, nmol oxidized cytochrome c/min/mg mitochondrial protein for complex IV. […] Results are expressed as nmol/mg mitochondrial proteins. […]

Substance: FLVCR1a shRNA: shRNA specifically down-regulating FLVCR1a without targeting FLVCR1b; pLKO.1 lentiviral clone TRCN0000059599, antisense SEQ ID No.: 2 (antisense TTGCTAATGATGCTGTACTGG; sense CCAGTACAGCATCATTAGCAA)
- TCA cycle flux: increased TCA cycle flux
